Source: ChEMBL document CHEMBL4261592, “Antiplasmodial flavanones and a stilbene from Carpha glomerata” (Bioorg Med Chem Lett, 2018)

System: Plasmodium falciparum
Assay: Antiplasmodial activity against ring-stage chloroquine-resistant Plasmodium falciparum Dd2 assessed as reduction in parasite viability after 72 hrs by SYBR Green I dye-based assay
Type: functional, organism-based
Settings: Dd2, 72 h

SMILES	IC50
CC(C)=CCc1c(O)cc(O)c2c1O[C@H](c1ccc(O)cc1)CC2=O	6.7 µM
COc1c(O)cc([C@@H]2CC(=O)c3c(O)cc(O)c(CC=C(C)C)c3O2)cc1O	5.2 µM
COc1cc2c(c(O)c1C)C(=O)C[C@@H](c1cc(O)c(OC)c(O)c1)O2	> 10 µM
CC(C)(O)CCc1c(O)cc(O)c2c1O[C@H](c1ccc(O)cc1)CC2=O	3.4 µM
COc1c(O)cc([C@@H]2CC(=O)c3c(O)c(C)c(O)c(C)c3O2)cc1O	> 10 µM
COc1c(O)ccc(/C=C/c2cc(O)cc(O)c2)c1CC=C(C)C	5.8 µM
COc1c(O)cc([C@@H]2CC(=O)c3c(O)c(C)c(OC)c(C)c3O2)cc1O	> 10 µM
C[C@@H]1CC[C@H]2[C@@H](C)C(=O)O[C@@H]3O[C@@]4(C)CC[C@@H]1[C@]32OO4 [ARTEMISININ]	0.012 µM
